# Experimental data as given in publication PMC4595804, “A strategy to discover decoy chemokine ligands with an anti-inflammatory activity” (Scientific Reports, 2015).
# Tests used:
# Type in all cases: cell-based
# CCL22 = target: T1, CCL22 (Homo sapiens, UniProt O00626); assay: TRIC-r calcium assay, neutraligand protocol: compound preincubated with CCL22, EGFP-CCR4+Gqi5+ HEK cells; conditions: for inhibition at 5 µM: compound 5 µM, read-out: Inhibition of CCL22 calcium responses (%)
# T1 construct: codes for the mature CCL17 or CCL22 with an N-terminal thioredoxin-hexahistidin (TRX- (His)6) tag; thioredoxin (TRX) (N, cleaved yes); (His)6 (N, cleaved yes); made in house; host or cells: E. coli BL21 (DE3)
# T1 sequence (O00626 25-93): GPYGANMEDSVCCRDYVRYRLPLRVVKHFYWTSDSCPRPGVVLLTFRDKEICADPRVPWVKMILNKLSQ
# Protocol: EGFP-CCR4^+Gqi5^+HEKcells were loaded with fluorescent Ca^2+-indicator Indo-1 AM (5μM, Interchim) for 45 min at 37 °C. […] Cells (100,000 cells/well, 100μl) were seeded in black clear bottom 96-well plates (Greiner), and centrifuged at 250 × g for 5 min.
# Two plates (96-well plates, Greiner) were prepared for the screen: one containing test compounds alone in order to determine their direct agonistic activity, and another one containing test compounds mixed with CCL17 or CCL22 at room temperature for 1 h (neutraligand protocol). The chemokines and test compounds were prepared at a 3× concentration, while digitonin was prepared at a 4× concentration. The CCR4 antagonist, C-021 served as control in the experiment. In the antagonist protocol, compounds were added to the cell plate (one compound per well) and incubated with cells for 30 min at room temperature, while the agonist (CCL17 or CCL22) was added to the ligand plate only.
# Dye loaded cells were placed in the FlexStation 3 (Molecular Devices). […] For the primary screening, the ligands (50μl of chemokine mixed with DMSO or test compounds) were added to the cells at 40 s, followed by digitonin addition (50μl) at 100 s to the cells. Molecules were screened at a final concentration of 2μg/ml with 5 nM CCL17 or CCL22. […] The calcium response values (height of peak response over baseline) were determined. Hits were selected by comparing the response amplitude at the time of the chemokine addition ± test compound. The Z’ factor[29] was calculated according to the following equation: Z’ = 1-(3SD+ + 3SD−)/|Ave+ − Ave−|, where SD+ and Ave+ are respectively the standard deviation and the mean value of the positive controls (chemokine + DMSO), while SD− and Ave− are respectively the standard deviation and the mean value of the negative controls (HEPES-BSA (0.1%) mixed with DMSO, or cells mixed with C-021). Hit molecules were confirmed by performing concentration-response curves and their half maximal inhibitory concentration (IC50) values were calculated using the Kaleidagraph software.
# CXCL10 = target: T2, CXCL10 (Homo sapiens, UniProt P02778); assay: Selectivity, neutraligand protocol, EGFP-CXCR3+ HEK cells; conditions: 10 μM compound, 5 nM CXCL10, EGFP-CXCR3+ HEK cells
# T2 construct: (His)6; made in house; host or cells: E. coli BL21 (DE3)
# Protocol: (§1) Figure 6 (a) Selectivity of CCL17 and CCL22 neutraligands towards 10 chemokines according to the “neutraligand protocol”. […] Each column represents the mean (block) ± SD (bars) of n = 3 experiments performed in triplicate. *p < 0.05; **p < 0.01; ***p < 0.005 as compared to chemokine + DMSO. (b) Chemokine neutraligands inhibited CCR4 endocytosis induced by CCL22 or CCL17. EGFP-CCR4^+ HEK cells were incubated for 30 min with DMSO or chemokine (100 nM CCL22 or CCL17) in the presence or absence of test compounds. […] Cell surface EGFP-tagged CCR4 receptors were measured by EGFP antibody labeling and flow cytometry analysis. CCR4 internalization was expressed as a percentage of total receptor surface expression calculated using control cells incubated with DMSO (100%). Each column represents the mean (block) ± SD (bars) of n = 3 experiments performed in triplicate. *p < 0.05; **p < 0.01; ***p < 0.005 as compared to chemokine alone. (c,d) Inhibition of CCL17 and CCL22- induced CCR4^+HUT78 T cell chemotaxis by neutraligands. […] The number of migrating cells induced by a chemokine alone was set at 100% migration. The number of migrating cells in the presence of chemokine and compounds were expressed as the corresponding percentages. Results were analyzed by fitting the experimental curves (% of migrating cells vs log compound concentration) using the Kaleidagraph software program, and the corresponding IC50 values were calculated. Means and SD values of triplicates were plotted.
# (§2) Human cDNAs encoding CCR4 and CXCR3 receptors were cloned in pIRES plasmid (Clontech) while cDNAs encoding CCR2, CCR5, CXCR2 and CXCR4 receptors were cloned in pCEP4 vector (Life technologies). […] Stably EGFP-CCR4^+ HEK cells were selected for 5 weeks with geneticin (G-418, 600μg/ml), and resulting cell clones were checked by fluorescence microscopy and FACS analysis. […]
# (§3) Dye loaded cells were placed in the FlexStation 3 (Molecular Devices). Calcium mobilization was measured at 401 and 475 nm emission fluorescence after excitation at 355 nm. […] Raw fluorescence data (at 401 and 475 nm) were exported and the ratio 401/475 was calculated. The calcium response values (height of peak response over baseline) were determined. […] The Z’ factor[29] was calculated according to the following equation: Z’ = 1-(3SD+ + 3SD−)/|Ave+ − Ave−|, where SD+ and Ave+ are respectively the standard deviation and the mean value of the positive controls (chemokine + DMSO), while SD− and Ave− are respectively the standard deviation and the mean value of the negative controls (HEPES-BSA (0.1%) mixed with DMSO, or cells mixed with C-021). Hit molecules were confirmed by performing concentration-response curves and their half maximal inhibitory concentration (IC50) values were calculated using the Kaleidagraph software.
# CXCL11 = target: T3, CXCL11 (Homo sapiens, UniProt O14625); assay: as above; conditions: 10 μM compound, 5 nM CXCL11, EGFP-CXCR3+ HEK cells
# T3 construct: thioredoxin-hexahistidin (TRX-(His)6) with enterokinase site; made in house; host or cells: E. coli BL21 (DE3)
# Protocol: as §1, §2, §3
# T2 sequence (P02778 22-98): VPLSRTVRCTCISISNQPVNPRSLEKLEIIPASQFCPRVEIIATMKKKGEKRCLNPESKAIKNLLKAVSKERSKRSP
# T3 sequence (O14625 22-94): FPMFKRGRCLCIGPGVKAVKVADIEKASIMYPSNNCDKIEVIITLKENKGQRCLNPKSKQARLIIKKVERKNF
SMILES,"IC50 (CCL22; 5 nM CCL22 preincubated 1 h with compound, 21 °C, read-out: IC50 for CCL22 neutralization (calcium assay))","inhibition at 2 µg/mL (CCL22; HEK293, 2 μg/ml compound preincubated 1 h with 5 nM CCL22, read-out: inhibition of CCL22-induced calcium responses (primary screen))",inhibition at 5 µM (CCL22; HEK293),effect on calcium responses induced by CXCL10 (CXCL10),effect on calcium responses induced by CXCL11 (CXCL11),"calcium response induced by WT CCL22 preincubated with compound (CCL22; 10 μM compound, 5 nM chemokine, remaining response)"
"O=C(OCC(O)CO)c1ccccc1O (stereo not drawn) [GPN136, 2,3-dihydroxypropyl 2-hydroxybenzoate]",11.6 ± 2.5 µM,46%,35 ± 8%,no effect,no effect,
"CC(C)=CCn1cnc2c1c(=O)n(C)c(=O)n2C [GPN279, 1,3-dimethyl-7-(3-methylbut-2-enyl)-1H-purine-2,6(3H, 7H)-dione]",,,0%,no effect,no effect,neither inhibited WT nor CCL22 mutants
